{
  "source": "PubChem BioAssay AID1963837",
  "about": "(Molecular Pharmacology Branch, DTP, NCI, 2024)",
  "tested_on": "843126-344-R-J1-PDC complex spheroid viability",
  "test": "Anticancer human tumor 843126-344-R-J1-PDC patient-derived melanoma cell line growth inhibition [POLQ]",
  "details": "for IC50: curve of first compound; for viability, T/C: stronger effect = lower value",
  "summary_of_the_method": "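Growth inhibition in 3D: complex spheroids (tumor PDC, HUVEC, MSC) treated with POLQ inhibitor combinations; where Cmax unknown, highest tested concentration 10 microM, except SN-38 at 1 microM.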",
  "key": {"[1]": {"details": "second compound 0.0316 µM, first compound 0.0316 µM"}, "[2]": {"details": "second compound 0.0316 µM, first compound 0.1 µM"}, "[3]": {"details": "second compound 0.0316 µM, first compound 0.316 µM"}, "[4]": {"details": "second compound 0.0316 µM, first compound 1 µM"}, "[5]": {"details": "second compound 0.1 µM, first compound 0.0316 µM"}, "[6]": {"details": "second compound 0.1 µM, first compound 0.1 µM"}, "[7]": {"details": "second compound 0.1 µM, first compound 0.316 µM"}, "[8]": {"details": "second compound 0.1 µM, first compound 1 µM"}, "[9]": {"details": "second compound 0.316 µM, first compound 0.0316 µM"}, "[10]": {"details": "second compound 0.316 µM, first compound 0.1 µM"}, "[11]": {"details": "second compound 0.316 µM, first compound 0.316 µM"}, "[12]": {"details": "second compound 0.316 µM, first compound 1 µM"}, "[13]": {"details": "second compound 1 µM, first compound 0.0316 µM"}, "[14]": {"details": "second compound 1 µM, first compound 0.1 µM"}, "[15]": {"details": "second compound 1 µM, first compound 0.316 µM"}, "[16]": {"details": "second compound 1 µM, first compound 1 µM"}, "[17]": {"details": "second compound 3.16 µM, first compound 0.0316 µM"}, "[18]": {"details": "second compound 3.16 µM, first compound 0.1 µM"}, "[19]": {"details": "second compound 3.16 µM, first compound 0.316 µM"}, "[20]": {"details": "second compound 3.16 µM, first compound 1 µM"}, "[21]": {"details": "second compound 10 µM, first compound 0.0316 µM"}, "[22]": {"details": "second compound 10 µM, first compound 0.1 µM"}, "[23]": {"details": "second compound 10 µM, first compound 0.316 µM"}, "[24]": {"details": "second compound 10 µM, first compound 1 µM"}},
  "data": [
    {"compound": "CCCS(=O)(=O)Nc1ccc(F)c(C(=O)c2c[nH]c3ncc(-c4ccc(Cl)cc4)cc23)c1F", "note": "+ Nc1ccc(C#CCN(C(=O)Cc2ncc(C(F)(F)F)cc2C(F)(F)F)c2ccc(F)cc2)nn1;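 for viability, T/C: spheroids exposed to drugs for seven days before readout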", "values": [
      {"measurement": "IC50", "setting": "second compound 0.0316 µM", "value": "> 10", "unit": "µM"},
      {"measurement": "IC50", "setting": "second compound 0.1 µM", "value": "> 10", "unit": "µM"},
      {"measurement": "IC50", "setting": "second compound 0.316 µM", "value": "> 10", "unit": "µM"},
      {"measurement": "IC50", "setting": "second compound 1 µM", "value": "> 10", "unit": "µM"},
      {"measurement": "IC50", "setting": "second compound 3.16 µM", "value": "> 10", "unit": "µM"},
      {"measurement": "IC50", "setting": "second compound 10 µM", "value": "> 10", "unit": "µM"},
      {"measurement": "viability, T/C", "setting": "[1]", "value": 86, "unit": "%"},
      {"measurement": "viability, T/C", "setting": "[2]", "value": 92.7, "unit": "%"},
      {"measurement": "viability, T/C", "setting": "[3]", "value": 98.9, "unit": "%"},
      {"measurement": "viability, T/C", "setting": "[4]", "value": 77.9, "unit": "%"},
      {"measurement": "viability, T/C", "setting": "second compound 0.0316 µM, first compound 3.16 µM", "value": 77.5, "unit": "%"},
      {"measurement": "viability, T/C", "setting": "second compound 0.0316 µM, first compound 10 µM", "value": 86.7, "unit": "%"},
      {"measurement": "viability, T/C", "setting": "[5]", "value": 82, "unit": "%"},
      {"measurement": "viability, T/C", "setting": "[6]", "value": 91.8, "unit": "%"},
      {"measurement": "viability, T/C", "setting": "[7]", "value": 82.8, "unit": "%"},
      {"measurement": "viability, T/C", "setting": "[8]", "value": 82.3, "unit": "%"},
      {"measurement": "viability, T/C", "setting": "second compound 0.1 µM, first compound 3.16 µM", "value": 78.1, "unit": "%"},
      {"measurement": "viability, T/C", "setting": "second compound 0.1 µM, first compound 10 µM", "value": 57.4, "unit": "%"},
      {"measurement": "viability, T/C", "setting": "[9]", "value": 85.8, "unit": "%"},
      {"measurement": "viability, T/C", "setting": "[10]", "value": 92.8, "unit": "%"},
      {"measurement": "viability, T/C", "setting": "[11]", "value": 88.9, "unit": "%"},
      {"measurement": "viability, T/C", "setting": "[12]", "value": 87.4, "unit": "%"},
      {"measurement": "viability, T/C", "setting": "second compound 0.316 µM, first compound 3.16 µM", "value": 77.5, "unit": "%"},
      {"measurement": "viability, T/C", "setting": "second compound 0.316 µM, first compound 10 µM", "value": 82, "unit": "%"},
      {"measurement": "viability, T/C", "setting": "[13]", "value": 93.5, "unit": "%"},
      {"measurement": "viability, T/C", "setting": "[14]", "value": 91.8, "unit": "%"},
      {"measurement": "viability, T/C", "setting": "[15]", "value": 71, "unit": "%"},
      {"measurement": "viability, T/C", "setting": "[16]", "value": 85.5, "unit": "%"},
      {"measurement": "viability, T/C", "setting": "second compound 1 µM, first compound 3.16 µM", "value": 77.2, "unit": "%"},
      {"measurement": "viability, T/C", "setting": "second compound 1 µM, first compound 10 µM", "value": 76.2, "unit": "%"},
      {"measurement": "viability, T/C", "setting": "[17]", "value": 86.4, "unit": "%"},
      {"measurement": "viability, T/C", "setting": "[18]", "value": 105, "unit": "%"},
      {"measurement": "viability, T/C", "setting": "[19]", "value": 95.2, "unit": "%"},
      {"measurement": "viability, T/C", "setting": "[20]", "value": 78, "unit": "%"},
      {"measurement": "viability, T/C", "setting": "second compound 3.16 µM, first compound 3.16 µM", "value": 62.7, "unit": "%"},
      {"measurement": "viability, T/C", "setting": "second compound 3.16 µM, first compound 10 µM", "value": 63.4, "unit": "%"},
      {"measurement": "viability, T/C", "setting": "[21]", "value": 93.3, "unit": "%"},
      {"measurement": "viability, T/C", "setting": "[22]", "value": 79.9, "unit": "%"},
      {"measurement": "viability, T/C", "setting": "[23]", "value": 79.7, "unit": "%"},
      {"measurement": "viability, T/C", "setting": "[24]", "value": 82.3, "unit": "%"},
      {"measurement": "viability, T/C", "setting": "second compound 10 µM, first compound 3.16 µM", "value": 74, "unit": "%"},
      {"measurement": "viability, T/C", "setting": "second compound 10 µM, first compound 10 µM", "value": 75.4, "unit": "%"}
    ]},
    {"compound": "COc1cccc(OCCCN)c1-c1cc(Nc2cnc(C#N)cn2)n[nH]1", "note": "+ COC1C(OC(N)=O)C(O)C(Oc2ccc3c(O)c(NC(=O)c4ccc(O)c(CC=C(C)C)c4)c(=O)oc3c2C)OC1(C)C", "values": [
      {"measurement": "IC50", "setting": "second compound 0.0316 µM", "value": 0.0871, "unit": "µM"},
      {"measurement": "IC50", "setting": "second compound 0.1 µM", "value": 0.156, "unit": "µM"},
      {"measurement": "IC50", "setting": "second compound 0.316 µM", "value": 0.135, "unit": "µM"},
      {"measurement": "IC50", "setting": "second compound 1 µM", "value": 0.347, "unit": "µM"},
      {"measurement": "IC50", "setting": "second compound 3.16 µM", "value": 0.29, "unit": "µM"},
      {"measurement": "IC50", "setting": "second compound 10 µM", "value": 0.153, "unit": "µM"},
      {"measurement": "viability, T/C", "setting": "second compound 0.0316 µM, first compound 0.00316 µM", "value": 78.6, "unit": "%"},
      {"measurement": "viability, T/C", "setting": "second compound 0.0316 µM, first compound 0.01 µM", "value": 85.6, "unit": "%"},
      {"measurement": "viability, T/C", "setting": "[1]", "value": 77.7, "unit": "%"},
      {"measurement": "viability, T/C", "setting": "[2]", "value": 45.8, "unit": "%"},
      {"measurement": "viability, T/C", "setting": "[3]", "value": 46.3, "unit": "%"},
      {"measurement": "viability, T/C", "setting": "[4]", "value": 31.8, "unit": "%"},
      {"measurement": "viability, T/C", "setting": "second compound 0.1 µM, first compound 0.00316 µM", "value": 93.3, "unit": "%"},
      {"measurement": "viability, T/C", "setting": "second compound 0.1 µM, first compound 0.01 µM", "value": 81.8, "unit": "%"},
      {"measurement": "viability, T/C", "setting": "[5]", "value": 73.2, "unit": "%"},
      {"measurement": "viability, T/C", "setting": "[6]", "value": 52, "unit": "%"},
      {"measurement": "viability, T/C", "setting": "[7]", "value": 44.1, "unit": "%"},
      {"measurement": "viability, T/C", "setting": "[8]", "value": 34.7, "unit": "%"},
      {"measurement": "viability, T/C", "setting": "second compound 0.316 µM, first compound 0.00316 µM", "value": 79.9, "unit": "%"},
      {"measurement": "viability, T/C", "setting": "second compound 0.316 µM, first compound 0.01 µM", "value": 76.8, "unit": "%"},
      {"measurement": "viability, T/C", "setting": "[9]", "value": 65.3, "unit": "%"},
      {"measurement": "viability, T/C", "setting": "[10]", "value": 54.9, "unit": "%"},
      {"measurement": "viability, T/C", "setting": "[11]", "value": 39.8, "unit": "%"},
      {"measurement": "viability, T/C", "setting": "[12]", "value": 38.6, "unit": "%"},
      {"measurement": "viability, T/C", "setting": "second compound 1 µM, first compound 0.00316 µM", "value": 96, "unit": "%"},
      {"measurement": "viability, T/C", "setting": "second compound 1 µM, first compound 0.01 µM", "value": 76.9, "unit": "%"},
      {"measurement": "viability, T/C", "setting": "[13]", "value": 76, "unit": "%"},
      {"measurement": "viability, T/C", "setting": "[14]", "value": 64.7, "unit": "%"},
      {"measurement": "viability, T/C", "setting": "[15]", "value": 52, "unit": "%"},
      {"measurement": "viability, T/C", "setting": "[16]", "value": 36.6, "unit": "%"},
      {"measurement": "viability, T/C", "setting": "second compound 3.16 µM, first compound 0.00316 µM", "value": 88.6, "unit": "%"},
      {"measurement": "viability, T/C", "setting": "second compound 3.16 µM, first compound 0.01 µM", "value": 85.2, "unit": "%"},
      {"measurement": "viability, T/C", "setting": "[17]", "value": 65.3, "unit": "%"},
      {"measurement": "viability, T/C", "setting": "[18]", "value": 68.2, "unit": "%"},
      {"measurement": "viability, T/C", "setting": "[19]", "value": 49.4, "unit": "%"},
      {"measurement": "viability, T/C", "setting": "[20]", "value": 31.8, "unit": "%"},
      {"measurement": "viability, T/C", "setting": "second compound 10 µM, first compound 0.00316 µM", "value": 72.7, "unit": "%"},
      {"measurement": "viability, T/C", "setting": "second compound 10 µM, first compound 0.01 µM", "value": 76.2, "unit": "%"},
      {"measurement": "viability, T/C", "setting": "[21]", "value": 70.2, "unit": "%"},
      {"measurement": "viability, T/C", "setting": "[22]", "value": 55.5, "unit": "%"},
      {"measurement": "viability, T/C", "setting": "[23]", "value": 40.8, "unit": "%"},
      {"measurement": "viability, T/C", "setting": "[24]", "value": 37.2, "unit": "%"}
    ]}
  ]
}
